row,Structure (SMILES),melting point
1,CC[S+]([O-])c1c(C(C)=O)nn(-c2c(Cl)cc(C(F)(F)F)cc2Cl)c1N (centres unmarked),189 °C
2,CC(=O)c1nn(-c2c(Cl)cc(C(F)(F)F)cc2Cl)c(NSC(F)(F)F)c1[S+](C)[O-] (centres unmarked),67 to 102 °C
3,CSc1c(C(C)=O)nn(-c2c(Cl)cc(C(F)(F)F)cc2Cl)c1N,113 °C
4,CC(=O)c1nn(-c2c(Cl)cc(C(F)(F)F)cc2Cl)c(N)c1[S+](C)[O-] (centres unmarked),166 °C

# The remaining lines, values ahead:
row,melting point,Structure (SMILES)
1,102 °C,CCS(=O)(=O)CCNc1c([S+](C)[O-])c(C(C)=O)nn1-c1c(Cl)cc(C(F)(F)F)cc1Cl (centres unmarked)
2,126 °C,CNc1c([S+](C)[O-])c(C(C)=O)nn1-c1c(Cl)cc(C(F)(F)F)cc1Cl (centres unmarked)
3,123 °C,CCNc1c([S+](C)[O-])c(C(C)=O)nn1-c1c(Cl)cc(C(F)(F)F)cc1Cl (centres unmarked)
4,153 °C,CC(=O)c1nn(-c2c(Cl)cc(C(F)(F)F)cc2Br)c(N)c1[S+](C)[O-] (centres unmarked)
